Patent US20230085307A1, “PYRIDAZINONE COMPOUND AND HERBICIDE” (NISSAN CHEMICAL CORPORATION, priority 2019, published 2023)

Legend:
[1] = tested on: lambsquarters; experiment: Test Example 4: herbicidal effect by soil treatment (Table 19, symbol O); assay type: in vivo, lambsquarters (Chenopodium album); settings: amount of applied herbicide 320 g/ha
In short: (§1)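 In this soil treatment, the formulated compound reached the seeds only through the soil: seeds were buried about 1.5 cm deep in sterilized diluvial soil, then the diluted emulsion was sprayed over the surface. After three weeks at 25° C. to 30° C. in a greenhouse, effects were graded on criteria from an earlier test.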

[2] = tested on: blackgrass; experiment: Test Example 4: herbicidal effect by soil treatment (Table 19, symbol J); assay type: in vivo, blackgrass (Alopecurus myosuroides); settings: amount of applied herbicide 320 g/ha
In short: as §1

[3] = tested on: redroot pigweed; experiment: Test Example 5: herbicidal effect by foliage application, plastic box (Table 20, symbol N); assay type: in vivo, redroot pigweed (Amaranthus retroflexus); settings: foliage application, 320 g/ha, three weeks after application
In short: (§2)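 Plants were sown into sterilized diluvial soil under about 1.5 cm cover and kept in a greenhouse at 25° C. to 30° C. Fourteen days on, foliage received an even spray of the diluted emulsion. Herbicidal or crop effect was judged three weeks afterwards.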

[4] = tested on: redroot pigweed; experiment: Test Example 4: herbicidal effect by soil treatment (Table 19, symbol N); assay type: in vivo, redroot pigweed (Amaranthus retroflexus); settings: amount of applied herbicide 320 g/ha
In short: as §1

[5] = tested on: lambsquarters; experiment: Test Example 5: herbicidal effect by foliage application, plastic box (Table 20, symbol O); assay type: in vivo, lambsquarters (Chenopodium album); settings: foliage application, 320 g/ha, three weeks after application
In short: as §2

[6] = tested on: southern crabgrass; experiment: Test Example 4: herbicidal effect by soil treatment (Table 19, symbol F); assay type: in vivo, southern crabgrass (Digitaria ciliaris); settings: amount of applied herbicide 320 g/ha
In short: as §1

[7] = tested on: blackgrass; experiment: Test Example 5: herbicidal effect by foliage application, plastic box (Table 20, symbol J); assay type: in vivo, blackgrass (Alopecurus myosuroides); settings: foliage application, 320 g/ha, three weeks after application
In short: as §2

[8] = tested on: persian speedwell; experiment: Test Example 5: herbicidal effect by foliage application, plastic box (Table 20, symbol R); assay type: in vivo, Persian speedwell (Veronica persica); settings: foliage application, 320 g/ha, three weeks after application
In short: as §2

[9] = tested on: wild oat; experiment: Test Example 4: herbicidal effect by soil treatment (Table 19, symbol I); assay type: in vivo, wild oat (Avena fatua); settings: amount of applied herbicide 320 g/ha
In short: as §1

[10] = tested on: velvetleaf; experiment: Test Example 4: herbicidal effect by soil treatment (Table 19, symbol M); assay type: in vivo, velvetleaf (Abutilon theophrasti); settings: amount of applied herbicide 320 g/ha
In short: as §1

[11] = tested on: wild oat; experiment: Test Example 5: herbicidal effect by foliage application, plastic box (Table 20, symbol I); assay type: in vivo, wild oat (Avena fatua); settings: foliage application, 320 g/ha, three weeks after application
In short: as §2

[12] = tested on: windgrass; experiment: Test Example 4: herbicidal effect by soil treatment (Table 19, symbol L); assay type: in vivo, windgrass (Apera spica-venti); settings: amount of applied herbicide 320 g/ha
In short: as §1

[13] = tested on: chickweed; experiment: Test Example 5: herbicidal effect by foliage application, plastic box (Table 20, symbol P); assay type: in vivo, common chickweed (Stellaria media); settings: foliage application, 320 g/ha, three weeks after application
In short: as §2

[14] = tested on: windgrass; experiment: Test Example 5: herbicidal effect by foliage application, plastic box (Table 20, symbol L); assay type: in vivo, windgrass (Apera spica-venti); settings: foliage application, 320 g/ha, three weeks after application
In short: as §2

[15] = tested on: persian speedwell; experiment: Test Example 4: herbicidal effect by soil treatment (Table 19, symbol R); assay type: in vivo, Persian speedwell (Veronica persica); settings: amount of applied herbicide 320 g/ha
In short: as §1

[16] = tested on: barnyard grass; experiment: Test Example 3: herbicidal effect by foliage application, Wagner pot (Table 18, symbol H); assay type: in vivo, barnyard grass (Echinochloa crus-galli); settings: 320 g/ha
In short: (§3)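 Plants were sown in alluvial soil held under 0.1–0.5 cm standing water and grown 14 days in a greenhouse at 25–30 °C. An emulsifiable formulation, water-diluted to the set dose, was then sprayed onto the foliage, and effects were scored three weeks later using previously defined criteria.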

[17] = tested on: velvetleaf; experiment: Test Example 5: herbicidal effect by foliage application, plastic box (Table 20, symbol M); assay type: in vivo, velvetleaf (Abutilon theophrasti); settings: foliage application, 320 g/ha, three weeks after application
In short: as §2

[18] = tested on: green foxtail; experiment: Test Example 5: herbicidal effect by foliage application, plastic box (Table 20, symbol G); assay type: in vivo, green foxtail (Setaria viridis); settings: foliage application, 320 g/ha, three weeks after application
In short: as §2

[19] = tested on: chickweed; experiment: Test Example 4: herbicidal effect by soil treatment (Table 19, symbol P); assay type: in vivo, common chickweed (Stellaria media); settings: amount of applied herbicide 320 g/ha
In short: as §1

[20] = tested on: Chinese sprangletop; experiment: Test Example 3: herbicidal effect by foliage application, Wagner pot (Table 18, symbol D); assay type: in vivo, chinese sprangletop (Leptochloa chinensis); settings: 320 g/ha
In short: as §3

[21] = tested on: green foxtail; experiment: Test Example 4: herbicidal effect by soil treatment (Table 19, symbol G); assay type: in vivo, green foxtail (Setaria viridis); settings: amount of applied herbicide 320 g/ha
In short: as §1

[22] = tested on: late watergrass; experiment: Test Example 1: herbicidal activity, application before weed generation under submerged conditions (Table 16, symbol A); assay type: in vivo, late watergrass (Echinochloa oryzicola); settings: 320 g/ha applied herbicide
In short: (§4)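 Submerged Wagner pots (alluvial soil, 4 cm water) sown with weed seeds and planted with 2.5-leaf rice seedlings; emulsifiable concentrate diluted in water applied to water surface on sowing day. Held in greenhouse at 25-30 °C; injury scored 0-5 by herbicidal rate after three weeks.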

[23] = tested on: southern crabgrass; experiment: Test Example 5: herbicidal effect by foliage application, plastic box (Table 20, symbol F); assay type: in vivo, southern crabgrass (Digitaria ciliaris); settings: foliage application, 320 g/ha, three weeks after application
In short: as §2

[24] = tested on: barnyard grass; experiment: Test Example 5: herbicidal effect by foliage application, plastic box (Table 20, symbol H); assay type: in vivo, barnyard grass (Echinochloa crus-galli); settings: foliage application, 320 g/ha, three weeks after application
In short: as §2

[25] = tested on: barnyard grass; experiment: Test Example 4: herbicidal effect by soil treatment (Table 19, symbol H); assay type: in vivo, barnyard grass (Echinochloa crus-galli); settings: amount of applied herbicide 320 g/ha
In short: as §1

[26] = tested on: Japanese bulrush; experiment: Test Example 1: herbicidal activity, application before weed generation under submerged conditions (Table 16, symbol B); assay type: in vivo, Japanese bulrush (Schoenoplectus juncoides); settings: 320 g/ha applied herbicide
In short: as §4

[27] = tested on: Italian ryegrass; experiment: Test Example 5: herbicidal effect by foliage application, plastic box (Table 20, symbol K); assay type: in vivo, Italian ryegrass (Lolium multiflorum); settings: foliage application, 320 g/ha, three weeks after application
In short: as §2

[28] = tested on: Italian ryegrass; experiment: Test Example 4: herbicidal effect by soil treatment (Table 19, symbol K); assay type: in vivo, Italian ryegrass (Lolium multiflorum); settings: amount of applied herbicide 320 g/ha
In short: as §1

[29] = tested on: rice flat sedge; experiment: Test Example 3: herbicidal effect by foliage application, Wagner pot (Table 18, symbol E); assay type: in vivo, rice flat sedge (Cyperus iria); settings: 320 g/ha
In short: as §3

[30] = tested on: oval-leafed pondweed; experiment: Test Example 1: herbicidal activity, application before weed generation under submerged conditions (Table 16, symbol C); assay type: in vivo, oval-leafed pondweed (Monochoria vaginalis); settings: 320 g/ha applied herbicide
In short: as §4

Compound: CCCC(=O)Oc1c(C)nn(C)c(=O)c1-c1c(-c2cc(F)ccc2OC)sc2ccccc12 [1-059]
- herbicidal effect rating, O: lambsquarters [1]: 3 (Herbicidal rate of 40% or more and less than 70%)
- herbicidal effect rating, J: blackgrass [2]: 3 (Herbicidal rate of 40% or more and less than 70%)
- herbicidal effect grade, N: redroot pigweed [3]: 3 (Herbicidal rate of 40% or more and less than 70%)
- herbicidal effect rating, N: redroot pigweed [4]: 0 (Herbicidal rate of 5% or less (almost no effect))
- herbicidal effect grade, O: lambsquarters [5]: 3 (Herbicidal rate of 40% or more and less than 70%)
- herbicidal effect rating, F: southern crabgrass [6]: 0 (Herbicidal rate of 5% or less (almost no effect))
- herbicidal effect grade, J: blackgrass [7]: 3 (Herbicidal rate of 40% or more and less than 70%)
- herbicidal effect grade, R: persian speedwell [8]: 2 (Herbicidal rate of 20% or more and less than 40%)
- herbicidal effect rating, I: wild oat [9]: 0 (Herbicidal rate of 5% or less (almost no effect))
- herbicidal effect rating, M: velvetleaf [10]: 0 (Herbicidal rate of 5% or less (almost no effect))
- herbicidal effect grade, I: wild oat [11]: 2 (Herbicidal rate of 20% or more and less than 40%)
- herbicidal effect rating, L: windgrass [12]: 3 (Herbicidal rate of 40% or more and less than 70%)
- herbicidal effect grade, P: chickweed [13]: 5 (Herbicidal rate of 90% or more (almost completely withered))
- herbicidal effect grade, L: windgrass [14]: 4 (Herbicidal rate of 70% or more and less than 90%)
- herbicidal effect rating, R: persian speedwell [15]: 0 (Herbicidal rate of 5% or less (almost no effect))
- herbicidal effect on H (barnyard grass), rating 0-5 [16]: 3 (Herbicidal rate of 40% or more and less than 70%)
- herbicidal effect grade, M: velvetleaf [17]: 2 (Herbicidal rate of 20% or more and less than 40%)
- herbicidal effect grade, G: green foxtail [18]: 2 (Herbicidal rate of 20% or more and less than 40%)
- herbicidal effect rating, P: chickweed [19]: 0 (Herbicidal rate of 5% or less (almost no effect))
- herbicidal effect on D (Chinese sprangletop), rating 0-5 [20]: 1 (Herbicidal rate of 5% or more and less than 20%)
- herbicidal effect rating, G: green foxtail [21]: 3 (Herbicidal rate of 40% or more and less than 70%)
- Herbicidal effect on A: late watergrass (grade 0-5) [22]: 3 (Herbicidal rate of 40% or more and less than 70%)
- herbicidal effect grade, F: southern crabgrass [23]: 0 (Herbicidal rate of 5% or less (almost no effect))
- herbicidal effect grade, H: barnyard grass [24]: 3 (Herbicidal rate of 40% or more and less than 70%)
- herbicidal effect rating, H: barnyard grass [25]: 3 (Herbicidal rate of 40% or more and less than 70%)
- Herbicidal effect on B: Japanese bulrush (grade 0-5) [26]: 2 (Herbicidal rate of 20% or more and less than 40%)
- herbicidal effect grade, K: Italian ryegrass [27]: 2 (Herbicidal rate of 20% or more and less than 40%)
- herbicidal effect rating, K: Italian ryegrass [28]: 1 (Herbicidal rate of 5% or more and less than 20%)
- herbicidal effect on E (rice flat sedge), rating 0-5 [29]: 5 (Herbicidal rate of 90% or more (almost completely withered))
- Herbicidal effect on C: oval-leafed pondweed (grade 0-5) [30]: 1 (Herbicidal rate of 5% or more and less than 20%)
